Measurements taken from PubChem BioAssay (NCI).
Several values for one entry are separate records, joined by “and”; a condition that tells them apart may be missing. Identical values can stand only once.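 Cultured in 96-well plates, cells were exposed to test compound for 48 hours across five concentrations. The concentration for 50% growth inhibition is given as GI50. TGI denotes the concentration required for complete inhibition of growth.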

How the values were obtained:
Experiment in all cases: NCI-60 cell line screen, 48 h
A498 renal = system: A498 renal
ACHN renal = system: ACHN renal
CAKI-1 renal = system: CAKI-1 renal
HOP-62 NSCLC = system: HOP-62 NSCLC
K-562 leukemia = system: K-562 leukemia
MALME-3M melanoma = system: MALME-3M melanoma
OVCAR-5 ovarian = system: OVCAR-5 ovarian
SF-539 CNS = system: SF-539 CNS
SN12C renal = system: SN12C renal
U251 CNS = system: U251 CNS

SMILES | GI50 (A498 renal) [µM] | TGI (A498 renal) [µM] | GI50 (ACHN renal) | TGI (ACHN renal) [µM] | GI50 (CAKI-1 renal) | TGI (CAKI-1 renal) [µM] | GI50 (HOP-62 NSCLC) [µM] | TGI (HOP-62 NSCLC) [µM] | GI50 (K-562 leukemia) [µM] | TGI (K-562 leukemia) [µM] | GI50 (MALME-3M melanoma) | TGI (MALME-3M melanoma) | GI50 (OVCAR-5 ovarian) | TGI (OVCAR-5 ovarian) [µM] | GI50 (SF-539 CNS) | TGI (SF-539 CNS) [µM] | GI50 (SN12C renal) | TGI (SN12C renal) [µM] | GI50 (U251 CNS) | TGI (U251 CNS) [µM]
OCC#Cc1ccccc1C#Cc1ccc(C#Cc2ccccc2C#CCO)cc1 | 28.9 | 95.7 | 36.2 µM | > 100 | 68.3 µM | > 100 | 28.1 | 68.5 | 34 | > 100 | 98.9 µM | > 100 µM | 30.4 µM | 75.9 | 34.9 µM | 91.5 | 31.6 µM | > 100 | 34 µM | > 100
[Mn+3].[O-][Cl+3]([O-])([O-])O.[O-]c1ccccc1C=NCCN1CC1.[O-]c1ccccc1C=NCCN1CC1 | > 100 | > 100 | 23.5 µM | 72.9 | 28.8 µM | 68.1 | 28.6 | > 100 | 20.5 | 42.4 | 19.7 µM | 39.9 µM | 37.6 µM | > 100 | 30.6 µM | > 100 | 19.4 µM | > 100 | 15.7 µM | 38.6
COc1ccc(NC(=O)c2ccc(C(F)(F)F)nc2Nc2ccc(Cl)cc2C)cc1Cl | 5.02 | 17.5 | 5.36 µM | 18.6 | 4.41 µM | 18.9 | 10.7 | 23.9 | 2.42 | 10.6 | 15.7 µM | 40.1 µM | 9.62 µM | 25.4 | 9.01 µM | 23.5 | 3.65 µM | 14 | 4.23 µM | 14.9
Cc1ccc(NC(=O)C(=O)C2C(=O)NC(=O)NC2=O)c(C)c1 | – | > 100 | – | > 100 | – | > 100 | – | > 100 | – | > 100 | – | > 100 µM | – | > 100 | – | > 100 | – | 28.2 | – | > 100
Cn1c(=O)nc2n(-c3ccc(F)c(F)c3)c3ccccc3nc-2c1=O | – | > 100 | – | 37.2 | – | > 100 | – | > 100 | – | 41.2 | – | 24.3 µM | – | 37.5 | – | > 100 | – | 53.8 | – | 36.2
CCOc1ccc(Nc2ccnc3cc(Cl)ccc23)cc1 | 2.61 | > 100 | 49.6 µM | > 100 | > 100 µM | > 100 | > 100 | > 100 | 32.3 | > 100 | > 100 µM | > 100 µM | 8.02 µM | > 100 | 29.4 µM | > 100 | > 100 µM | > 100 | > 100 µM | > 100
CCCCCCCCCCCCCCCCCC1=NC(C)(C)CN1C(C)(C)CO | 11.2 | 31.2 | 1.53 µM | 3.05 | 1.6 µM | 3.9 | 1.72 | 3.19 | 1.11 | 4.05 | 1.94 µM | 4.22 µM | 1.56 µM | 3.48 | 1.59 µM | 3.14 | 1.52 µM | 3.25 | 1.42 µM | 3.03
CC1=NC(C)=C(/C(C)=N/NC(=O)c2ccccc2O)C(C)/C1=C(/C)NNC(=O)c1ccccc1O (stereo not given) | – | 99.6 | – | 86.4 | – | > 100 | – | > 100 | – | 35.3 | – | 80.8 µM | – | 92.1 | – | 76.2 | – | > 100 | – | > 100
CCOC(=O)NC(=O)c1cn(C2CCCCC2)c(=O)n(C)c1=O | – | > 100 | – | > 100 | – | > 100 | – | > 100 | – | > 100 | – | > 100 µM | – | > 100 | – | > 100 | – | > 100 | – | > 100
O=C1/C(=C/c2ccc(Cl)cc2)N=C(c2ccccc2)N1c1cc(C(F)(F)F)ccc1Cl | 36.7 | > 100 | 22.1 µM | > 100 | 31 µM | 69.5 | 15 | 42.8 | 20.1 | 79.9 | 27.7 µM | 86.5 µM | 24.9 µM | 64.2 | 18.1 µM | 44.3 | 30.5 µM | > 100 | 22.5 µM | > 100
C=CCC1(CN(C)C)CC/C(=C\c2cc(OC)c(OC)c(OC)c2)C1=O (stereo not given) | – | 79 | – | 70.8 | – | > 100 | – | > 100 | – | 54.1 | – | > 100 µM | – | > 100 | – | 35 | – | 54.8 | – | 59.5
CC(C)(C)c1cc[n+](C[n+]2ccc(C(C)(C)C)cc2)cc1 | – | > 100 | – | > 100 | – | > 100 | – | > 100 | – | > 100 | – | > 100 µM | – | > 100 | – | > 100 | – | > 100 | – | > 100
COc1ccc2c(c1)C(=O)/C(=C/c1ccc(O)cc1)O2 | 23.2 | 49.3 | 4 µM | 10.9 | 1.88 µM | 5.66 | 55.2 | > 100 | 2.58 | > 24.8 | 5.47 µM | 13.2 µM | 19.2 µM | 38.5 | 21.6 µM | 56.8 | 14.1 µM | 32 | 14.1 µM | 27.2
C[C@]1(c2nc3c(C(N)=O)cccc3[nH]2)CCCN1 | > 100 | > 100 | 41.8 µM and > 100 µM | > 100 | 59 µM and 74.9 µM | > 100 | > 100 | > 100 | > 100 | > 100 | 43.4 µM and > 85.8 µM | 97.9 µM and > 100 µM | 23.5 µM and > 75 µM | > 100 | 79.7 µM and > 100 µM | > 100 | 79.9 µM and > 85.5 µM | > 100 | 75.9 µM and > 100 µM | > 100
CCCC[C@H](CCc1ccccc1)N(C(=O)OC)N1CCC[C@H]1COC | – | 34.6 | – | 30.4 | – | > 100 | – | 40.4 | – | 61.2 | – | 32.1 µM | – | 32.4 | – | 33 | – | 32.7 | – | 29.1
